Experimental findings from US20110152317A1, “P[…] OCCURRENCE OF OBESITY” (DUKE UNIVERSITY, priority 2008, published 2011) are described below.

The test system of experiment [1] is male C57BL/6 mice on a high-fat diet. Kind of experiment: Chloroquine injection in mice on high-fat diet (obesity, insulin resistance, skeletal muscle lipid profiling). As to conditions: high-fat diet (60% of calories from fat), 60 mg/kg intraperitoneal daily for 12 weeks. It counts as in vivo, mouse. The source says: Five adult (12 week old) male C57BL/6 mice (The Jackson Laboratory, Bar Harbor, ME) were subjected to 12 weeks of high-fat diet (HF) (60% of calories from fat) with a separate group of five mice on normal chow (NC) for the same duration as control. A significant difference in body weight between NC and HF mice was detected 4 weeks after implementation of the high-fat diet, and the body weight of the HF group continued to increase to about 55.4% above the value in age matched NC mice after 12 weeks of the high-fat diet. […] NC mice. The development of severe obesity in HF mice was accompanied by 89.0% increase (P<0.001) in blood glucose area under curve (AUC) during a glucose tolerance test. These findings indicate that high-fat diet in adult mice induced severe obesity and insulin resistance.
Five of the same kind of non-obese mice as used in Background Example 1 on a high-fat diet (60% of calories from fat) were injected with chloroquine (60 mg/kg, intraperitoneal) daily for 12 weeks of high-fat diet feeding.

For the next experiment, the system named is human on high-fat diet. Kind of experiment: Oral chloroquine in a human on a high-fat diet (Working Example I). It counts as in vivo. As to conditions: person, 400 mg orally daily, 12 weeks. The protocol: A person with BMI of 20 eats a diet where 50% of calories come from fat, e.g. cheeseburgers or steak, onion rings or french fries, and ice cream or pecan pie for dessert at dinner, cold cut sandwich and fries or pizza for lunch, eggs, sausage, hash browns for breakfast. The subject also orally takes 400 mg chloroquine orally daily. The regimen is continued for 12 weeks.

For the molecule `CCN(CC)CCCC(C)Nc1ccnc2cc(Cl)ccc12` (centres unmarked) [chloroquine], in experiment [1], the “high-fat diet induced changes in skeletal muscle (mass spectrometry-based profiling of lipid species)” value is “blocked high-fat diet induced changes in skeletal muscle”; the “occurrence of insulin resistance (glucose tolerance test)” value was “blocked the occurrence of obesity and insulin resistance”; the occurrence of obesity result was “blocked the occurrence of obesity”. For the same molecule, the BMI with human on high-fat diet (baseline BMI 20, diet 50% of calories from fat) turned out to be 20. Besides, the “development of insulin resistance” value in the experiment on human on high-fat diet (diet 50% of calories from fat) is reported as “does not develop insulin resistance”.
